Data set [1] is described as follows: LD50 (acute toxicity). The settings on record: rat, in vivo, rats. Here is the method:
(§1) The compounds of the present invention have a high and prolonged adrenolytic activity and a low toxicity and are therefore useful in therapy. This adrenolytic activity was tested "in vitro" on isolated guinea pig seminal vescicle suspended in physiological solution and "in vivo" on the rat. Table 1 reports the values of concentrations, in γ/ml, which are able to produce a 50% inhibition (IC50) of the spasmogen effect caused by adrenaline and the doses in mg/Kg (ED50) able to reduce by 50% the lethal effects caused by adrenaline after oral (os) and intravenous (i.v.) administration of the compounds in question. Table 1 also reports the LD50 values, both per os and i.v. in rats.

Data set [2] concerns lethal effects caused by adrenaline. The data set is described as follows: adrenolytic activity in vivo: reduction of the lethal effects caused by adrenaline. The settings on record: rat, 50% reduction of lethal effects caused by adrenaline. As for the experimental part: as §1
Data set [3] has as its system isolated guinea pig seminal vescicle. The experiment in a line: adrenolytic activity in vitro: inhibition of the spasmogen effect caused by adrenaline. The format is cell-based. Conditions: Cavia porcellus, 50% inhibition of spasmogen effect caused by adrenaline. Here is the method: as §1
A short description of data set [4]: analgesic activity, writhing test. The format is in vivo. As for the experimental part: (§2) The analgesic activity was evaluated by means of the hot plate test and the writhing test, the data being given in comparison with morphine and D-propoxyphene.
(§3) In the hot plate and writhing tests, the comparison compounds morphine and D-propoxyphene have been arbitrarily assigned the value of 1.
In general terms: Writhing tests count abdominal constrictions after an irritant is injected.

A short description of data set [5]: analgesic activity, hot plate test. The format is in vivo. Conditions: for Analgesic Activity Hot Plate, relative to D-propoxyphene: D-propoxyphene = 1. Here is the method: as §2, §3
A general note: Thermal pain tests record how soon the animal reacts.

In data set [6] the test system is hypertensive rat. The data set is described as follows: hypotensive activity on the hypertensive rat. The format is in vivo. The settings on record: po, per os, dose which causes a pressure drop of about 30-40 mmHg, read-out: Hypotensive Activity active dose. As for the experimental part: The hypotensive activity was tested on the hypertensive rat; the reported data being the dose expressed in mg/Kg per os, which causes a pressure drop of about 30-40 mmHg.

[7] abbreviates: iv, i.v., read-out: Adrenolytic Activity "in vivo" ED50 i.v.
Where [8] appears, read: po, per os, read-out: Adrenolytic Activity "in vivo" ED50 os.
[9] abbreviates: morphine = 1, listed as 1,6-dimethyl-8β-[5-amino-2-pyrimidino-aminoethyl]-10α-ergoline.

Each structure is given as a SMILES string. In brackets after ≈: the same amount, converted by molar mass. Like-named read-outs stand apart in the source and are kept apart here.

Consider `Cc1cnc(NCC[C@@H]2C[C@@H]3c4cccc5c4c(cn5C)C[C@H]3N(C)C2)nc1` [1,6-Dimethyl-8β-[5-methyl-2-pyrimidinoaminoethyl]-10α-ergoline], for which the 50% lethal dose (LD50) – broadly, the dose expected to kill half of the subjects tested – in data set [1] (iv, i.v., read-out: LD50 i.v.) was determined as 19 mg/kg; in data set [1] (po, per os, read-out: LD50 os) it was 130 mg/kg. In addition, the values for the median effective dose (ED50) in data set [2] (setting [7]) and in data set [2] (setting [8]) were 0.07 mg/kg and 0.5 mg/kg, respectively. In data set [3], half-maximal inhibition (IC50) required 0.5 µg/mL (≈ 1.33 µM).

On to `CO[C@]12C[C@@H](CCNc3ncc([N+](=O)[O-])cn3)CN(C)[C@@H]1Cc1cn(C)c3cccc2c13` [1,6-Dimethyl-8β-[5-nitro-2-pyrimidinoaminoethyl]-10α-methoxyergoline], for which the LD50 in data set [1] (po, per os, read-out: LD50 os) was determined as 150 mg/kg. The figures for the ED50 in data set [2] (setting [7]) and in data set [2] (setting [8]) were 0.25 mg/kg and 0.42 mg/kg, respectively. Also, the IC50 (commonly the midpoint of a concentration-inhibition curve) in data set [3] turned out to be 0.5 µg/mL (≈ 1.15 µM).

On to `CN1C[C@H](CCNc2ncccn2)C[C@@H]2c3cccc4c3c(cn4C)C[C@H]21` [1,6-dimethyl-8β-[2-pyrimidinoaminoethyl]-10α-ergoline], for which the LD50 in data set [1] (iv, i.v., read-out: LD50 i.v.) was 18 mg/kg; in data set [1] (po, per os, read-out: LD50 os) it was 100 mg/kg. Further, the results for the ED50 in data set [2] (setting [7]) and in data set [2] (setting [8]) were 0.2 mg/kg and 0.1 mg/kg, respectively. In data set [3], this molecule registered an IC50 of 0.001 µg/mL (≈ 0.00277 µM).

`CN1C[C@H](CCNc2ncc(N)cn2)C[C@@H]2c3cccc4c3c(cn4C)C[C@H]21` [1,6-dimethyl-8β-[5-amino-2-pyrimidinoaminoethyl]-10α-ergoline]: in data set [4] (D-propoxyphene = 1), the “Analgesic Activity Writhing, relative to D-propoxyphene” value came to 10. For the same molecule, the “Analgesic Activity Writhing, relative to morphine” value is 1 in data set [4] (morphine = 1) and “same activity as morphine” in data set [4] (setting [9]). Further, in data set [5], the “Analgesic Activity Hot Plate, relative to D-propoxyphene” value turned out to be 5. In addition, the “Analgesic Activity Hot Plate, relative to morphine” value is on record as 1 in data set [5] (morphine = 1) and “same activity as morphine” in data set [5] (setting [9]). Moreover, in data set [6], the ED (30-40 mmHg pressure drop) is 10 mg/kg.

For `CO[C@]12C[C@@H](CCNc3ncc(Br)cn3)CN(C)[C@@H]1Cc1cn(C)c3cccc2c13` [1,6-dimethyl-8β-[5-bromo-2-pyrimidinoaminoethyl]-10α-methoxyergoline], in data set [1] (po, per os, read-out: LD50 os), the LD50 was found to be 200 mg/kg. The ED50 (usually the dose that gives a 50% effect, or the effect in half of the subjects) in data set [2] (setting [7]) was 0.65 mg/kg; in data set [2] (setting [8]) it was more than 1 mg/kg. Moreover, the IC50 in data set [3] was found to be 0.01 µg/mL (≈ 0.0213 µM).

With `COc1cnc(NCC[C@@H]2C[C@@H]3c4cccc5c4c(cn5C)C[C@H]3N(C)C2)nc1` [1,6-dimethyl-8β-[5-methoxy-2-pyrimidinoaminoethyl]-10α-ergoline], the “Analgesic Activity Hot Plate, relative to D-propoxyphene” value in data set [5] came to 2. Moreover, in data set [5] (morphine = 1), the “Analgesic Activity Hot Plate, relative to morphine” value was found to be 0.5. In data set [6], the ED (30-40 mmHg pressure drop) is 10 mg/kg.
